Source: patent publication US7879835B2 (Korea Research Institute of Chemical Technology, priority 2004, dated 2011)

What was measured:
[1] = system: osteoclast (TRAP-positive multinuclear cell) formation; assay: Inhibitory effect on osteoclast formation (TRAP staining); format: cell-based, mice; settings: compared to control; for Osteoclast formation inhibitory effects (%): 8 days culture with M-CSF and RANKL; for inhibition at 0.3 µM / inhibition at 1 µM / inhibition at 3 µM / inhibition at 0.1 µM: Mus musculus, Osteoclast, read-out: Osteoclast formation inhibitory effects (%); for inhibition at 0.3 µM: 0.3 μM (Table 4b); for inhibition at 1 µM: 1 μM (Table 4b); for inhibition at 3 µM: 3 μM (Table 4b); for inhibition at 0.1 µM: 0.1 μM (Table 4b)
Procedure: The inhibitory activities of the alpha-arylmethoxyacrylate derivatives prepared in the above Examples on the proliferation of osteoclasts were examined as follows.
First, a bone marrow sample containing osteoclast pregenitor cells was isolated as follows. After sacrificing 7 to 9 week-old female mice by cervical dislocation, femur and tibia were excised aseptically while removing soft tissues attached thereto, After cutting both ends of the long bones, 1 ml of an enzyme solution containing 0.1% collagenase (Gibco), 0.05% trypsin and 0.5 mM EDTA (Gibco) was injected into the bone marrow cavity at one end using a syringe with a 26-gauge needle, and the bone marrow was then collected. After stirring the recovered bone marrow for 30 min, the precipitated bone marrow cells were collected, and cultured in α-minimum essential medium (α-MEM) supplemented with 10% FBS for 24 hrs. Then, non-adherent cells, which are osteoclast pregenitors, were aliquoted onto a culture plate at a density of 2×10^5 cells per well, and cultured for 8 days in α-MEM supplemented with 20 ng/ml of macrophage-colony stimulating factor (M-CSF, Peprotech, USA), 30 ng/ml RANKL (Peprotech, USA), and 0.3, 1.0 or 3 μM of the compounds of the Examples. Control cells were cultured at the same condition except not adding the compounds of the Examples.
After cell culture for 8 days, the adherent cells were washed with PBS and fixed with citrate-acetate-formaldehyde for 5 min. The fixed cells were incubated at 37° C. for 1 hr in acetate buffer (pH 5.0) containing naphthol AS-BI phosphate, fast Garnet GBC solution and 7 mM tartrate buffer (pH 5.0) to conduct TRAP (tartrate-resistant acid phosphatase) staining.

osteoclasts = assay: Inhibitory effect on resorption activity of osteoclast (resorption pit area on calcium phosphate-coated plate); format: cell-based, mice; settings: compared to control
Procedure: After finishing culture, the plate was washed with distilled water, and 50 μl/well of 5% sodium hypochlorite was added to the plate. The plate was let alone for 5 min, washed again with distilled water to remove the adherent cells, and dried at room temperature. Then, the area of formed resorption pits was calculated by means of Image Pro Plus software (Media Cybernetics Ver. 3.0).

| Compound | Osteoclast formation inhibitory effects (%) ([1]; 0.3 μM) | Osteoclast formation inhibitory effects (%) ([1]; 1.0 μM) | Osteoclast formation inhibitory effects (%) ([1]; 3.0 μM) | Reduction (%) of the resorption pit area of osteoclasts (osteoclasts; 0.3 uM) | Reduction (%) of the resorption pit area of osteoclasts (osteoclasts; 1 uM) | Reduction (%) of the resorption pit area of osteoclasts (osteoclasts; 3 uM) | inhibition at 0.3 µM [1] | inhibition at 1 µM [1] | inhibition at 3 µM [1] | inhibition at 0.1 µM [1] |
| --- | --- | --- | --- | --- | --- | --- | --- | --- | --- | --- |
| CCC(C)Oc1ccc(OCc2ccccc2/C(=C\OC)C(=O)OC)cc1 (stereo not shown) [compound 175] | 14% | 100% | 100% | 99% | 100% | 100% | – | – | – | – |
| CO/C=C(/C(=O)OC)c1ccccc1COc1cccc(N2CCOCC2)n1 [compound 348] | – | – | – | – | – | – | 24% | 99% | 100% | – |
| CO/C=C(/C(=O)OC)c1ccccc1COc1cccc(N2CCN(C(=O)OC(C)(C)C)CC2)c1 [compound 406] | – | – | – | – | – | – | 100% | 100% | 100% | 41% |
| C=CCN(CC=C)c1ccc(OCc2ccccc2/C(=C\OC)C(=O)OC)c(F)c1 [compound 421] | – | – | – | – | – | – | 14% | 100% | 100% | – |
| C=CCN(CC=C)c1ccc(OCc2ccccc2/C(=C\OC)C(=O)OC)cc1F [compound 367] | – | – | – | – | – | – | – | 87% | 100% | – |
| CO/C=C(/C(=O)OC)c1ccccc1COc1cccc(N2CCCCC2)n1 [compound 413] | – | – | – | – | – | – | 11% | 100% | 100% | – |
| CO/C=C(/C(=O)OC)c1ccccc1COc1ccc(NCC(C)C)cc1F [Compound No. 425, (E)-methyl-2-[2-((4-(N-isobutylamino)-2-fluorophenoxy)methyl)phenyl]-3-methoxyacrylate] | – | – | – | – | – | – | 51% | 100% | 100% | 0% |
| CO/C=C(/C(=O)OC)c1ccc(Cl)cc1COc1cccc(N(C)c2ccccc2)c1 [compound 390] | – | – | – | – | – | – | 94% | 99% | 100% | 2% |
| CO/C=C(/C(=O)OC)c1ccccc1COc1ccc(N(CC2CC2)CC2CC2)cc1F [compound 422] | – | – | – | – | – | – | 98% | 100% | 100% | 11% |
| CO/C=C(/C(=O)OC)c1ccccc1COc1ccc(N2CCCC2)cn1 [compound 397] | – | – | – | – | – | – | 22% | 100% | 100% | – |
| CO/C=C(/C(=O)OC)c1ccccc1COc1cccc(N2CCOCC2)c1 [compound 349] | – | – | – | – | – | – | 53% | 100% | 100% | 2% |
| CCCOc1ccc(OCc2ccccc2/C(=C\OC)C(=O)OC)cc1 [compound 192] | 68% | 100% | 100% | 100% | 100% | 100% | – | – | – | – |
| CO/C=C(/C(=O)OC)c1ccccc1COc1ccc(N(C)CC2CC2)cc1F [compound 424] | – | – | – | – | – | – | 92% | 100% | 100% | 0% |
| CO/C=C(/C(=O)OC)c1ccccc1COc1ccc(N2CCOCC2)cc1F [compound 408] | – | – | – | – | – | – | 52% | 100% | 100% | 0% |
| CO/C=C(/C(=O)OC)c1ccccc1COc1ccc(C(C)F)cc1 (stereo not shown) [compound 170] | 81% | 100% | 100% | 0% | 100% | 100% | – | – | – | – |
| CO/C=C(/C(=O)OC)c1ccccc1COc1cccc(N(C)c2ccccc2)n1 [compound 414] | – | – | – | – | – | – | 32% | 100% | 100% | – |
| CCCCCCCOc1cccc(OCc2ccccc2/C(=C\OC)C(=O)OC)c1 [compound 201] | 12% | 70% | 100% | 100% | 100% | 100% | – | – | – | – |

| Compound | Osteoclast formation inhibitory effects (%) ([1]; 0.3 μM) | Osteoclast formation inhibitory effects (%) ([1]; 1.0 μM) | Osteoclast formation inhibitory effects (%) ([1]; 3.0 μM) | Reduction (%) of the resorption pit area of osteoclasts (osteoclasts; 0.3 uM) | Reduction (%) of the resorption pit area of osteoclasts (osteoclasts; 1 uM) | Reduction (%) of the resorption pit area of osteoclasts (osteoclasts; 3 uM) | inhibition at 0.3 µM [1] | inhibition at 1 µM [1] | inhibition at 3 µM [1] | inhibition at 0.1 µM [1] |
| --- | --- | --- | --- | --- | --- | --- | --- | --- | --- | --- |
| CO/C=C(/C(=O)OC)c1ccccc1COc1ccc(NCC2CC2)c(F)c1 [compound 372] | – | – | – | – | – | – | – | 91% | 100% | – |
| CO/C=C(/C(=O)OC)c1ccc(Cl)cc1COc1cccc(N2CCCCC2)c1 [compound 387] | – | – | – | – | – | – | 100% | 100% | 100% | 1% |
| CO/C=C(/C(=O)OC)c1ccccc1COc1ccc(OCC(C)C)cc1 [compound 174] | 35% | 100% | 100% | 100% | 100% | 100% | – | – | – | – |
| CO/C=C(/C(=O)OC)c1ccccc1COc1cccc(NCCC(C)C)c1 [compound 383] | – | – | – | – | – | – | 6% | 94% | 100% | – |
| CCCCCCCCc1cccc(OCc2ccccc2/C(=C\OC)C(=O)OC)c1 [compound 229] | 100% | 100% | 100% | 0.00% | 100% | 100% | – | – | – | – |
| CO/C=C(/C(=O)OC)c1ccccc1COc1ccc(OC2CCCC2)cc1 [compound 172] | 90% | 100% | 100% | 90% | 100% | 100% | – | – | – | – |
| CO/C=C(/C(=O)OC)c1ccc(Cl)cc1COc1cccc(CO)c1 [compound 262] | 93% | 100% | 100% | 93% | 100% | 100% | – | – | – | – |
| CO/C=C(/C(=O)OC)c1ccccc1COc1ccc(NCC(C)C)cc1 [compound 361] | – | – | – | – | – | – | – | 95% | 100% | – |
| C=CCCOc1ccc(OCc2ccccc2/C(=C\OC)C(=O)OC)cc1 [compound 178] | 89% | 100% | 100% | 97% | 100% | 100% | – | – | – | – |
| C=CCNc1cccc(OCc2ccccc2/C(=C\OC)C(=O)OC)c1 [compound 381] | – | – | – | – | – | – | 5% | 67% | 100% | – |
| CCOc1ccc(OCc2ccccc2/C(=C\OC)C(=O)OC)cc1 [compound 183] | 96% | 100% | 100% | 100% | 100% | 100% | – | – | – | – |
| CO/C=C(/C(=O)OC)c1ccccc1COc1ccc(NCC2CC2)cc1F [compound 423] | – | – | – | – | – | – | 51% | 100% | 100% | 0% |
| CO/C=C(/C(=O)OC)c1ccccc1COc1ccc(N(C)c2ccccc2)c(F)c1 [compound 417] | – | – | – | – | – | – | 24% | 97% | 100% | – |
| CO/C=C(/C(=O)OC)c1ccccc1COc1cccc(NC2CCCC2)c1 [compound 380] | – | – | – | – | – | – | 8% | 51% | 100% | – |
| CO/C=C(/C(=O)OC)c1ccccc1COc1cccc(N2CCCC2)c1 [compound 392] | – | – | – | – | – | – | 2% | 95% | 100% | – |
| CO/C=C(/C(=O)OC)c1ccccc1COc1ccc(N(C)c2ccccc2)cc1 [compound 400] | – | – | – | – | – | – | 53% | 99% | 100% | 0% |
| CO/C=C(/C(=O)OC)c1ccccc1COc1ccc(N2CCCC2)c(F)c1 [compound 418] | – | – | – | – | – | – | 11% | 81% | 100% | – |
